Test results published in patent publication US20230190887A1, “TARGETING G3BP AGGREGATION TO PREVENT NEURODEGENERATION” (priority 2019, published 2023).
“Also recorded” adds a separate entry of the source.

Experiments:
[1] = test system: G3BP1, TIA1, FMRP, FXR, TDP43 and FUS-TLS aggregates in E18 cortical neurons; test: RNA binding protein aggregates along axons of Aβ oligomer-treated cortical neurons; type: cell-based, rat; settings: 1 μM Aβ oligomer 2 hours, then peptide for additional 4 hours
Method: The data in FIGS. 13A-F and 14A-F raise the possibility that stress granule targeting therapies like the cell permeable G3BP1 190-208 peptide may decrease or even prevent loss of neurons across different types of neurodegenerative diseases. To address this possibility, the current disclosure asked if the cell permeable G3BP1 190-208 peptide could disassemble pathological protein aggregates in neurons. For this, 7 day cortical neuron cultures were treated with 1 μM A[…] oligomer for 2 hours and then treated with cell permeable G3BP1 190-208 peptide or a scramble sequence cell permeable peptide for an additional 4 hours. […] Thus, the cell permeable G3BP1 190-208 peptide can not only prevent RNA binding protein aggregation in axons after exposure to neurotoxins associated AD and PD, but it can also trigger disassembly of these pathological aggregates after they begin to form.
Representative confocal images for G3BP1. […] Quantifications for co:localization of FMRP, FXR, TDP43, FUS-TLS and TIA1 with G3BP1 in axons of E18 cortical neurons treated as in C are shown as average Pearson's coefficient±SEM (N≥120 aggregates over three repetitions and *p≤0.01, **p≤0.005, ***p≤0.001 for entire population distributions by Fishers exact test for FIG. 15B and FIG. 15D; […] neurons over 3 repetitions and *p≤0.01 **p≤0.005, ***p≤0.001 by one-way ANOVA with Tukey HSD post-hoc for FIG. 15E).

[2] = test system: G3BP1 aggregates in midbrain neurons; test: Endogenous G3BP1 aggregates in MPP+-treated midbrain neurons; type: cell-based, rat; settings: MPP+ plus peptide
Source text: Given that the G3BP1 190-208 peptide prevents degeneration induced by treatment with neurotoxins such as MPP+ and Aβ oligomer and decreases G3BP1 aggregates formed due MPP+ and Aβ treatment.
(A) Size of endogenous G3BP1 aggregates per 100 μm of neurite is shown as indicated bins from midbrain cultures under control conditions and after treatment with MPP+alone or with 190-208 G3BP1 or 168-189 peptides. (B) Size distribution of endogenous G3BP1 aggregates per 100 μm of neurite is shown from cortical neurons treated with 1 μM Aβpeptide or with […] 190-208 G3BP1 or 168-189 control peptide. Non-treated neurons were used as a control. […] (N≥90 over 3 cultures; by two-way ANOVA with Tukey HSD post-hoc).

[3] = test system: NMJs of TDPΔNLS MN-muscle co-cultures; test: TMRE mitochondrial activity in in vitro NMJs; type: cell-based, mouse; settings: 20 μM peptide in NMJ compartment
Method: Muscles in co-culture were kept in BA medium for 7 days. To aid NMJ formation, media in all compartments was then replaced to poor neurobasal (PNB) medium, which contained only 1% P/S and 1% Glutamax. Doxycycline was applied to TDP-43ΔNLS cultures only at the proximal MN compartment, in a concentration of 0.1 μg/mL, immediately after plating and throughout the entire experimental timeline. For TDPΔNLS recovery experiments (FIGS. 7-8), Doxycline was […] at the proximal MN compartment after 5 DIV, and the cultures were grown until 11 DIV. For G3BP1 peptide treatment (FIG. 21 at i-j, FIG. 24 at f), 20 μM G3BP1 peptides were added exclusively to the distal compartment, starting after 7 DIV.
Mitochondrial membrane potential was assessed with Tetramethylrhodamine Ethyl, Ester (TMRE; Thermo Fisher) dye. Cultures were incubated with 20 nM TMRE for 30 min in CO2 incubator, then washed 3 times with culture medium. Images of TMRE labeled axons in the distal compartment of MFCs were acquired before and after cultures were treated with Anisomycin (40 μM) or NaAsO2 (250 μM), Cycloheximide (150 μM) in ×60 magnification. […] The intensity of TMRE fluorescence in axonal mitochondria was measured using FIJI, and the fraction of change post/pretreatment was calculated for each image field.

YGNKKNNNQNNN-VVEPEPEPEPEPEPEPVSE [G3BP1 190-208 peptide]
penetration into cell bodies and axons (primary MNs): penetration
TIA1, FMRP, FXR, TDP43 and FUS-TLS colocalization with G3BP1 [1]: significantly decreased
size of G3BP1, TIA1, FMRP, FXR, TDP43 and FUS-TLS aggregates along axons [1]: significantly decreased size; also recorded: reduction in amyloid beta treatment dependent G3BP1-associated protein aggregates
size of endogenous G3BP1 aggregates per 100 μm of neurite [2]: decrease in the size of G3BP1 aggregates
size of endogenous G3BP1 aggregates per 100 μm of neurite ([2]; listed as 190-208 G3BP1 peptide): disassembly of G3BP1 granules
pre-synaptic TMRE signal (mitochondria activity) in NMJs [3]: recovered
